This assay has as its target T1, NK-1 receptor (Meriones unguiculatus, UniProt Q5DUB1).
T1 construct: from tissue; host or cells: central nervous system of living Mongolian gerbils (in vivo, agonist infused i.c.v.)
The assay can be described thus: Gerbil foot-tapping induced by central NK-1 receptor agonist (GR73632). In kind it is in vivo, Mongolian gerbils. Conditions: iv. From the text: Assay 2: Gerbil Foot-Tapping
CNS-penetrant NK-1 receptor antagonists for use in the present invention can be identified by their ability to inhibit foot tapping in gerbils induced by anxiogenic agents (such as pentagastrin) or central infusion of NK-1 receptor agonists such as GR73632, or caused by aversive stimulation such as foot shock or single housing, based on the method of Rupniak & Williams, Eur. J. Pharmacol., 1994, 265, 179.
Male or female Mongolian gerbils (35-70 g) are anaesthetised by inhalation of an isoflurane/oxygen mixture to permit exposure of the jugular vein in order to permit administration of test compounds or vehicle in an injection volume of 5 ml/kg i.v. Alternatively, test compounds may be administered orally or by subcutaneous or intraperitoneal routes. A skin incision is then made in the midline of the scalp to expose the skull. […]

Each structure is given as a SMILES string. Where two headings read alike, the source gives them in different places.

T1 sequence (Q5DUB1 whole entry, the tested form may be a part): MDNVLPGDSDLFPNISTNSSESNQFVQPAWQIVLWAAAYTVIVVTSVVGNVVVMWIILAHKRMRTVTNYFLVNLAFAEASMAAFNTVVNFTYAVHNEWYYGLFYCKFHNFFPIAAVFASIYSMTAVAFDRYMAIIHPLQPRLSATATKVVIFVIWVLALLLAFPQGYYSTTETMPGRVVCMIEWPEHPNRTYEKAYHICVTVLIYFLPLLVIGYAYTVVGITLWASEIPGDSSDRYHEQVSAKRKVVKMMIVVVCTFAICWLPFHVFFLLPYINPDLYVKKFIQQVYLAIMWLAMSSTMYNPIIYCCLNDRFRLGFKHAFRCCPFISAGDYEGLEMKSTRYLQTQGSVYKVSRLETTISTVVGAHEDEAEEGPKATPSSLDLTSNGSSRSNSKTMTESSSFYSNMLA

Consider `OC[C@@H](O[C@H]1OCCN(Cc2nc[nH]n2)[C@H]1c1ccc(F)cc1)c1cc(C(F)(F)F)cc(C(F)(F)F)c1` [2-(R)-(1-(S)-(3,5-bis(trifluoromethyl)phenyl)-2-hydroxyethoxy)-3-(S)-(4-fluorophenyl)-4-(1,2,4-triazol-3-yl)methylmorpholine], for which the ED50 is 0.38 mg/kg (5 min, i.v., 5 mins., administered immediately prior to central NK1 agonist challenge, read-out: gerbil foot-tapping (5 mins.): ID50) and 2.2 mg/kg (24 hrs. prior to central NK1 agonist challenge, read-out: gerbil foot-tapping (24 hrs.): ID50).
